Publication PMC9266004, “Potential Common Mechanisms of Cytotoxicity Induced by Amide Herbicides via TRPA1 Channel Activation” (International Journal of Environmental Research and Public …, 2022)
Like-named read-outs stand apart in the source and are kept apart here.

Assays:
[1] = test system: calcium influx in TRPA1-KO A549 cells; test: Cellular calcium imaging (Fluo-4) in TRPA1-KO A549 cells; assay type: cell-based, human; details: AHs 150-1200 μM
Protocol: The hTRPA1 gene sequence (Gene ID: 8989) was obtained from the National Center for Biotechnology Information (NCBI) website (https://www.ncbi.nlm.nih.gov/gene/8989 accessed on 26 May 2022). Three gRNA sequences, namely, T1: 5′-[…]-[…], T16: 5′-[…]-3′, and T20: 5′-[…]-3′, were designed using the CRISPR online design tool (http://crispr.mit.edu/ accessed on 26 May 2022). Transfection of cells with gRNA-Cas9 was validated in test cells. Cell pool examination was performed using Sanger sequencing. Sequencing and tracer analysis were performed using the online tool TIDE (https://tide-calculator.nki.nl/ accessed on 26 May 2022) to investigate the cleavage efficiency of T1, T16, and T20. Cells from the cell pool were diluted in 96-well plates. Clones were observed under a microscope and wells containing single cell clones were labeled. Single cell clones were transferred to 24-well plates for expansion. Validation of knockout (KO) clones was performed via sequencing to confirm insertion and deletion on the genomes of KO clone candidates. Furthermore, mycoplasmas were detected for cloned cells with high KO using the Mycoplasma PCR Detection Kit.
(§1) Wild-type (WT) and TRPA1-KO A549 cells were cultured in McCoy’s 5A Media and F-12K Nutrient Mixture containing 10% fetal bovine serum, respectively. WT/TRPA1-KO A549 cells (5 × 10^4 cells/mL) were seeded in 96-well (100 μL/well) and 6-well (2 mL/well) plates and incubated at 37 °C with 5% CO2 in a humidified incubator for 24 h. WT/TRPA1-KO A549 cells were treated with AHs gradient concentrations (0, 150, 300, 600, 1200 μM) prepared in methanol (1.2 M) for 24 h. Additionally, WT/TRPA1-KO A549 cells were pre-treated with TRPA1 special inhibitor HC-030031 (100 μM) for 0.5 h and then treated with AHs gradient concentrations for 24 h.
(§2) Working solution was prepared according to the instructions of the Fluo-4 Direct calcium assay kit and directly added to WT/TRPA1-KO A549 cells in 96-well plates, which were incubated for 0.5 h and kept away from light after removal from the incubator. Single channel fluorescein isothiocyanate (FITC) levels were measured using a confocal high-content imaging system (IXM-C S150069, Molecular Devices, San Jose, CA, USA).

[2] = biological target: hTRPA1 ARD recombinant protein (Homo sapiens, UniProt O75762); test: LSPR binding analysis (OpenSPR, COOH chip); details: for kon: read-out: association constant (ka); for koff: read-out: dissociation constant (kd)
hTRPA1 ARD recombinant protein, sequence (O75762 62-609): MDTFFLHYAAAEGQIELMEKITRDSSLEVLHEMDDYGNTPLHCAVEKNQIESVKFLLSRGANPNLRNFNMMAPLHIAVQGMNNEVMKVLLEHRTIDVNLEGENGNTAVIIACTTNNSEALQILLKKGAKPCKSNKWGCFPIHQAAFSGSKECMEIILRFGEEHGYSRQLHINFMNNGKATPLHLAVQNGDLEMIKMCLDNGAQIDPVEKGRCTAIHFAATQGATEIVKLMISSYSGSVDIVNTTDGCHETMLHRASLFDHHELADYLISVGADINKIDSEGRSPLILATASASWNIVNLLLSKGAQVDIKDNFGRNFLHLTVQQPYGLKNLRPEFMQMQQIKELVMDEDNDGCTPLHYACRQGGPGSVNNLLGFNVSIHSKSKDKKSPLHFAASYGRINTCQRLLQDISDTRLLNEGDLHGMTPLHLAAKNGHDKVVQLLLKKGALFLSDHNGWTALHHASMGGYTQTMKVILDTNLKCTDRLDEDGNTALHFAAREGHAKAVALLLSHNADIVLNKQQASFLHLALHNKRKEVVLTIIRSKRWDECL
Protocol: The binding capacity of hTRPA1 ARD recombinant protein and AHs was determined by LSPR according to the OpenSPR (Nicoya Life Sciences, Kitchener, ON, Canada) operating procedure using the COOH chip. After the baseline signal was obtained, the sample was washed with 200 µL 80% isopropyl alcohol for 10 s, and 200 µL ethylcarbodiimide/N-hydroxysuccinimide solution was added. The sample loop was rinsed with phosphate-buffered saline (PBS). hTRPA1 (5 µL) was diluted with PBS, incubated for 4 min, and 200 µL blocking solution was added. […] Contact and dissociation time of analytes and protein were 240 s and 160 s, respectively. TraceDrawer software was applied to determine the association constant (ka), dissociation constant (kd), and affinity constant (KD) using a 1:1 model.

[3] = test system: calcium influx in A549 cells; test: Cellular calcium imaging (Fluo-4) in WT A549 cells; assay type: cell-based, human; details: for calcium influx compared with 0 μM AHs: A549 cells, 150, 300, 600, 1200 μM; for calcium influx with HC-030031 pre-treatment compared with AHs treatment alone: A549 cells, HC-030031 50 μM, AHs 150-1200 μM
Protocol: as §1, with “Additionally, WT/TRPA1-KO A549 cells were pre-treated with TRPA1 special inhibitor HC-030031 (100 μM) for 0.5 h and then treated with AHs gradient concentrations for 24 h.” left out
as §2

[4] = test system: A549 cells; test: CCK-8 cell viability assay in WT A549 cells; assay type: cell-based, human; details: for viability of A549 cells compared with 0 μM AHs: 150, 300, 600, 1200 μM, 24 h; for viability of A549 cells compared with 0 μM AHs / IC50: CCK-8; for viability with HC-030031 pre-treatment compared with AHs treatment alone: A549 cells, HC-030031 50 μM, AHs 150, 300, 600 μM
Protocol: as §1, with “Additionally, WT/TRPA1-KO A549 cells were pre-treated with TRPA1 special inhibitor HC-030031 (100 μM) for 0.5 h and then treated with AHs gradient concentrations for 24 h.” left out
To conduct the cell viability assay, the growth medium was removed from WT/TRPA1-KO A549 cells cultured in a 96-well plate. CCK-8 reagent was mixed with complete medium (1:9 volume ratio), and 100 µL of the CCK-8 reagent mixture was added to each well. The plate was incubated for 4 h and the absorbance was measured at 450 nm using a microplate reader (BNR05740; Molecular Devices, Sunnyvale, CA, USA). The average absorbance from each sextuplicate set of wells was calculated and the background control value was subtracted from each absorbance value. The percentage cell viability was determined using the following equation:cell viability (%) = [(As − Ab)/(Ac − Ab)] × 100% where As is the absorbance of the experimental well (containing medium, CCK-8 reagent, cells, and compound); Ac is the absorbance of the control well (containing medium, CCK-8 reagent, and cells); and Ab is the absorbance of the blank well (containing medium and CCK-8 reagent).

[5] = test system: TRPA1 mRNA in A549 cells; test: RT-qPCR of TRPA1 mRNA; assay type: cell-based, human; details: for TRPA1 mRNA expression with HC-030031 pre-treatment compared with AHs treatment alone: HC-030031 50 μM, AHs 150, 300, 600 μM; for expression of TRPA1 mRNA compared with 0 μM AHs: significant at one or more of 150, 300, 600 μM
Protocol: as §1, with “Additionally, WT/TRPA1-KO A549 cells were pre-treated with TRPA1 special inhibitor HC-030031 (100 μM) for 0.5 h and then treated with AHs gradient concentrations for 24 h.” left out
TRIzol Reagent (1 mL) was directly added to WT/TRPA1-KO A549 cells in 6-well plates and total RNA was extracted according to the manufacturer’s instructions. Total RNA was used for cDNA reverse transcription, which was performed according to the PrimeScript RT protocol with the following reaction conditions: 42 °C for 2 min, 4 °C for ∞ (removal of genomic DNA), 37 °C for 15 min, 85 °C for 5 s, and 4 °C for ∞ (reverse transcriptional reaction). RT-qPCR was performed according to the TB Green Premix Ex Taq II protocol. Primer sequences and product lengths were as follows: hTRPA1 (107 bp) forward primer 5′-[…]-3′, reverse primer 5′-[…]-3′; hβ-actin (184 bp) forward primer 5′-[…]-3′, reverse primer 5′-[…]-3′. RT-qPCR was performed using the CFX96 Real-Time System (Bio-Rad Laboratories, Hercules, CA, USA) using the following reaction conditions: 95 °C for 30 s, 40 cycles of 95 °C for 5 s, 60 °C for 30 s, and 72 °C for 30 s, followed by a melting curve from 65 to 95 °C in 0.5 °C/5 s increments. Calculations were performed using the CFX Manager^TM Version 1.0 software (Bio-Rad Laboratories Ltd., Hercules, CA, USA) and are represented as fold change in expression [2^ΔΔC(t)] on a linear scale.

[6] = Homo sapiens, WT A549 cells, 24 h treatment, read-out: IC50 values of AHs, A549 Cells
[7] = WT A549 cells pre-treated with HC-030031 50 μM, then AHs 24 h, read-out: IC50 values of AHs, A549 Cells + HC-030031 50 μM

Compound | calcium influx with KO of TRPA1 compared with AHs-treated WT cells [1] | Kd [2] | association constant (ka) ([2]; 1:1 model, TraceDrawer) | dissociation constant (kd) ([2]; 1:1 model, TraceDrawer) | calcium influx compared with 0 μM AHs [3] | calcium influx with HC-030031 pre-treatment compared with AHs treatment alone [3] | viability of A549 cells compared with 0 μM AHs [4] | viability with HC-030031 pre-treatment compared with AHs treatment alone [4] | IC50 [4, 6] | IC50 [4, 7] | TRPA1 mRNA expression with HC-030031 pre-treatment compared with AHs treatment alone [5] | expression of TRPA1 mRNA compared with 0 μM AHs [5] | kon [2] | koff [2]
CCCOCCN(C(=O)CCl)c1c(CC)cccc1CC [Pretilachlor, pretilachlor] | significantly decreased calcium influx | 309 µM | 14.3 M⁻¹ s⁻¹ | 0.00443 s⁻¹ | significantly increased | significantly decreased calcium influx | significantly decreased | significantly increased viability | 2330 µM | 4460 µM | albeit not significantly | significantly increased |  | 
CCC(=O)Nc1ccc(Cl)c(Cl)c1 [Propanil, propanil] | significantly decreased calcium influx | 16.2 µM |  |  | significantly increased | significantly decreased calcium influx | significantly decreased | significantly increased viability | 831 µM | 2290 µM | significantly reduced | significantly increased | 2390 M⁻¹ s⁻¹ | 0.0388 s⁻¹
CCc1cccc(C)c1N(C(=O)CCl)C(C)COC (stereo not drawn) [Metolachlor, metolachlor] | significantly decreased calcium influx | 364 µM |  |  | significantly increased | significantly decreased calcium influx | significantly decreased | significantly increased viability | 430 µM | 620 µM | significantly reduced | significantly increased | 112 M⁻¹ s⁻¹ | 0.0408 s⁻¹
